Assay results from patent US10239832B2, “N-(1-hydroxy-3-(pyrrolidinyl)propan-2-yl)pyrrolidine-3-carboxamide derivatives as glucosylceramide synthase inhibitors” (BIOMARIN PHARMACEUTICAL INC., priority 2013, dated 2019).

Biological target: T1, GCS (Canis lupus familiaris, UniProt A0A8I3MXG6)
T1 construct: endogenous in cells; host or cells: MDCK (Madin-Darby canine kidney) cells, whole-cell lysate
T1 sequence (A0A8I3MXG6 1-394): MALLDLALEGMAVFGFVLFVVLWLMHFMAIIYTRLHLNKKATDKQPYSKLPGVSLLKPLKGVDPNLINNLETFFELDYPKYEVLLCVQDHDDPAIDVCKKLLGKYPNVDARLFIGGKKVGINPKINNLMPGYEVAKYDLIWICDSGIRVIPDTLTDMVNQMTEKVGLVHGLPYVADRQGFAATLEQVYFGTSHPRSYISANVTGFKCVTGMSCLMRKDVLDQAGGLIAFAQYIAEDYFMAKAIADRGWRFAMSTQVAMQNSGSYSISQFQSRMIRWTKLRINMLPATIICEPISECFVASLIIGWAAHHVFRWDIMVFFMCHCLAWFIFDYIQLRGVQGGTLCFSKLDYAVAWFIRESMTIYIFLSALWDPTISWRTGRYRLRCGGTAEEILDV
Experiment: GCS enzymatic assay (MDCK cell lysate, NBD-ceramide to glucosylceramide, LC/MS)
Format: biochemical, canine
Conditions: Table 2, the table does not say which of the assays; for IC50: class symbols A, B, C, read-out: Data Range (IC50 values); for Data Range (% inhibition): class symbols D, E, F, NA (not active)
How it was run: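 IC50 or percent inhibition came from LC/MS/MS (ESI+, MRM) of NBD-ceramide and glucosylceramide, with tolbutamide as internal standard. The reaction used MDCK (canine) cell lysate as the enzyme source and was ended with acetonitrile. Mock wells received 0.1% DMSO.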

Row | Structure (SMILES) | IC50 [nM] | Data Range (% inhibition)
1 | O=C(N[C@H](CN1CCC1)[C@H](O)c1cc(F)c2c(c1)OCCO2)C1CCN(c2ccc3cc(Cl)ccc3c2)C1 (stereo partly drawn) [Compound 89F, N-((1R,2R)-3-(azetidin-1-yl)-1-(8-fluoro-2,3-dihydrobenzo[b][1,4]dioxin-6-yl)-1-hydroxypropan-2-yl)-1-(6-chloronaphthalen-2-yl)pyrrolidine-3-carboxamide] | 1 to 30 | –
2 | O=C(N[C@H](CN1CCC1)[C@H](O)c1cc(F)c2c(c1)OCCO2)[C@H]1CCN(c2ccc3cc(Cl)ccc3c2)C1 [Compound 89G, (S)-N-((1R,2R)-3-(azetidin-1-yl)-1-(8-fluoro-2,3-dihydrobenzo[b][1,4]dioxin-6-yl)-1-hydroxypropan-2-yl)-1-(6-chloronaphthalen-2-yl)pyrrolidine-3-carboxamide] | – | E (50-74% (or less than 75%))
3 | O=C(N[C@H](CN1CCCC1)[C@H](O)c1ccc2c(c1)OCCO2)[C@@H]1CCN(c2cnc3cccnc3c2)C1 [Compound 90, (R)-N-((1R,2R)-1-(2,3-dihydrobenzo[b][1,4]dioxin-6-yl)-1-hydroxy-3-(pyrrolidin-1-yl)propan-2-yl)-1-(1,5-naphthyridin-3-yl)pyrrolidine-3-carboxamide] | – | F (1-49% (or less than 50%))
4 | O=C(N[C@H](CN1CCCC1)[C@H](O)c1ccc2c(c1)OCCO2)[C@H]1CCN(c2cnc3cccnc3c2)C1 [Compound 90D, (S)-N-((1R,2R)-1-(2,3-dihydrobenzo[b][1,4]dioxin-6-yl)-1-hydroxy-3-(pyrrolidin-1-yl)propan-2-yl)-1-(1,5-naphthyridin-3-yl)pyrrolidine-3-carboxamide] | – | F (1-49% (or less than 50%))
5 | O=C(N[C@H](CN1CCCC1)[C@H](O)c1ccc(OC2CC2)c(Cl)c1)[C@@H]1CCN(c2ccc3ccsc3c2)C1 [Compound 91, (R)-1-(benzo[b]thiophen-6-yl)-N-((1R,2R)-1-(3-chloro-4-cyclopropoxyphenyl)-1-hydroxy-3-(pyrrolidin-1-yl)propan-2-yl)pyrrolidine-3-carboxamide] | 1 to 30 | –
6 | O=C(N[C@H](CN1CCCC1)[C@H](O)c1ccc(OC2CCOCC2)c(Cl)c1)[C@@H]1CCN(c2ccc3ccsc3c2)C1 [Compound 92, (R)-1-(benzo[b]thiophen-6-yl)-N-((1R,2R)-1-(3-chloro-4-((tetrahydro-2H-pyran-4-yl)oxy)phenyl)-1-hydroxy-3-(pyrrolidin-1-yl)propan-2-yl)pyrrolidine-3-carboxamide] | 1 to 30 | –
7 | O=C(N[C@H](CN1CCCC1)[C@H](O)c1cc(F)c2c(c1)OCCO2)[C@@H]1CCN(c2ccc3c(c2)CCCC3)C1 [Compound 93, (R)-N-((1R,2R)-1-(8-fluoro-2,3-dihydrobenzo[b][1,4]dioxin-6-yl)-1-hydroxy-3-(pyrrolidin-1-yl)propan-2-yl)-1-(5,6,7,8-tetrahydronaphthalen-2-yl)pyrrolidine-3-carboxamide] | 1 to 30 | –
8 | O=C(N[C@H](CN1CCCC1)[C@H](O)c1cc(F)c2c(c1)OCCO2)[C@H]1CCN(c2ccc3c(c2)CCCC3)C1 [Compound 93A, (S)-N-((1R,2R)-1-(8-fluoro-2,3-dihydrobenzo[b][1,4]dioxin-6-yl)-1-hydroxy-3-(pyrrolidin-1-yl)propan-2-yl)-1-(5,6,7,8-tetrahydronaphthalen-2-yl)pyrrolidine-3-carboxamide] | – | E (50-74% (or less than 75%))
9 | O=C(N[C@H](CN1CCCC1)[C@H](O)c1ccc(OC2CCOCC2)c(Cl)c1)[C@@H]1CCN(c2ccc3ccccc3c2)C1 [Compound 94, (R)-N-((1R,2R)-1-(3-chloro-4-((tetrahydro-2H-pyran-4-yl)oxy)phenyl)-1-hydroxy-3-(pyrrolidin-1-yl)propan-2-yl)-1-(naphthalen-2-yl)pyrrolidine-3-carboxamide] | 1 to 30 | –
10 | O=C(N[C@H](CN1CCC1)[C@H](O)c1ccc(OC2CC2)c(Cl)c1)[C@@H]1CCN(c2ccc3cc(F)ccc3c2)C1 [Compound 95, (R)-N-((1R,2R)-3-(azetidin-1-yl)-1-(3-chloro-4-cyclopropoxyphenyl)-1-hydroxypropan-2-yl)-1-(6-fluoronaphthalen-2-yl)pyrrolidine-3-carboxamide] | – | D (75-100%)
11 | O=C(N[C@H](CN1CCCC1)[C@H](O)c1ccc(OC2CC2)c(Cl)c1)[C@@H]1CCN(c2ccc(F)cc2)C1 [Compound 96, (R)-N-((1R,2R)-1-(3-chloro-4-cyclopropoxyphenyl)-1-hydroxy-3-(pyrrolidin-1-yl)propan-2-yl)-1-(4-fluorophenyl)pyrrolidine-3-carboxamide] | 1 to 30 | –
12 | O=C(N[C@H](CN1CCCC1)[C@H](O)c1cc(F)c2c(c1)OCCO2)[C@@H]1CCN(c2ccc3ccsc3c2)C1 [Compound 97, (R)-1-(benzo[b]thiophen-6-yl)-N-((1R,2R)-1-(8-fluoro-2,3-dihydrobenzo[b][1,4]dioxin-6-yl)-1-hydroxy-3-(pyrrolidin-1-yl)propan-2-yl)pyrrolidine-3-carboxamide] | 1 to 30 | –
13 | O=C(N[C@H](CN1CCCC1)[C@H](O)c1cc(F)c2c(c1)OCCO2)[C@H]1CCN(c2ccc3ccsc3c2)C1 [Compound 97C, (S)-1-(benzo[b]thiophen-6-yl)-N-((1R,2R)-1-(8-fluoro-2,3-dihydrobenzo[b][1,4]dioxin-6-yl)-1-hydroxy-3-(pyrrolidin-1-yl)propan-2-yl)pyrrolidine-3-carboxamide] | – | E (50-74% (or less than 75%))
14 | O=C(N[C@H](CN1CCCC1)[C@H](O)c1ccc(OC2CC2)c(Cl)c1)[C@@H]1CCN(c2ccc3c(c2)CCCC3)C1 [Compound 98, (R)-N-((1R,2R)-1-(3-chloro-4-cyclopropoxyphenyl)-1-hydroxy-3-(pyrrolidin-1-yl)propan-2-yl)-1-(5,6,7,8-tetrahydronaphthalen-2-yl)pyrrolidine-3-carboxamide] | – | D (75-100%)
15 | O=C(N[C@H](CN1CCCC1)[C@H](O)c1ccc(OC2CC2)c(Cl)c1)[C@H]1CCN(c2ccc3c(c2)CCCC3)C1 [Compound 98A, (S)-N-((1R,2R)-1-(3-chloro-4-cyclopropoxyphenyl)-1-hydroxy-3-(pyrrolidin-1-yl)propan-2-yl)-1-(5,6,7,8-tetrahydronaphthalen-2-yl)pyrrolidine-3-carboxamide] | – | F (1-49% (or less than 50%))
16 | O=C(N[C@H](CN1CCCC1)[C@H](O)c1ccc2c(c1)OCCO2)[C@@H]1CCN(c2ccc3cc(Cl)ccc3n2)C1 [Compound 99, (R)-1-(6-chloroquinolin-2-yl)-N-((1R,2R)-1-(2,3-dihydrobenzo[b][1,4]dioxin-6-yl)-1-hydroxy-3-(pyrrolidin-1-yl)propan-2-yl)pyrrolidine-3-carboxamide] | 1 to 30 | –
17 | O=C(N[C@H](CN1CCCC1)[C@H](O)c1ccc2c(c1)OCCO2)C1CCN(c2ccc3cc(Cl)ccc3n2)C1 (stereo partly drawn) [Compound 99C, 1-(6-chloroquinolin-2-yl)-N-((1R,2R)-1-(2,3-dihydrobenzo[b][1,4]dioxin-6-yl)-1-hydroxy-3-(pyrrolidin-1-yl)propan-2-yl)pyrrolidine-3-carboxamide] | 1 to 30 | –
18 | O=C(N[C@H](CN1CCCC1)[C@H](O)c1ccc2c(c1)OCCO2)[C@H]1CCN(c2ccc3cc(Cl)ccc3n2)C1 [Compound 99D, (S)-1-(6-chloroquinolin-2-yl)-N-((1R,2R)-1-(2,3-dihydrobenzo[b][1,4]dioxin-6-yl)-1-hydroxy-3-(pyrrolidin-1-yl)propan-2-yl)pyrrolidine-3-carboxamide] | – | F (1-49% (or less than 50%))
19 | O=C(N[C@H](CN1CCCC1)[C@H](O)c1ccc(OC2CC2)c(Cl)c1)[C@@H]1CCN(c2ccc3cc(Cl)ccc3n2)C1 [Compound 100, (R)-N-((1R,2R)-1-(3-chloro-4-cyclopropoxyphenyl)-1-hydroxy-3-(pyrrolidin-1-yl)propan-2-yl)-1-(6-chloroquinolin-2-yl)pyrrolidine-3-carboxamide] | 1 to 30 | –
20 | O=C(N[C@H](CN1CCCC1)[C@H](O)c1ccc(OC2CCOCC2)c(Cl)c1)[C@@H]1CCN(c2ccc3cc(Cl)sc3c2)C1 [Compound 101, (R)-N-((1R,2R)-1-(3-chloro-4-((tetrahydro-2H-pyran-4-yl)oxy)phenyl)-1-hydroxy-3-(pyrrolidin-1-yl)propan-2-yl)-1-(2-chlorobenzo[b]thiophen-6-yl)pyrrolidine-3-carboxamide] | 1 to 30 | –
21 | CC(C)(O)COc1ccc([C@@H](O)[C@@H](CN2CCCC2)NC(=O)[C@@H]2CCN(c3ccc4cc(F)ccc4c3)C2)cc1Cl [Compound 102, (R)-N-((1R,2R)-1-(3-chloro-4-(2-hydroxy-2-methylpropoxy)phenyl)-1-hydroxy-3-(pyrrolidin-1-yl)propan-2-yl)-1-(6-fluoronaphthalen-2-yl)pyrrolidine-3-carboxamide] | 1 to 30 | –
22 | O=C(N[C@H](CN1CCCC1)[C@H](O)c1ccc(OC2CC2)c(Cl)c1)[C@@H]1CCN(c2ccc(Cl)c(Oc3ccccn3)c2)C1 [Compound 103, (R)-1-(4-chloro-3-(pyridin-2-yloxy)phenyl)-N-((1R,2R)-1-(3-chloro-4-cyclopropoxyphenyl)-1-hydroxy-3-(pyrrolidin-1-yl)propan-2-yl)pyrrolidine-3-carboxamide] | 1 to 30 | –
